Source: patent US7138399B2, “Alkoxypyridine-derivatives” (Altana Pharma AG, priority 2002, dated 2006)

What was measured:
[1] = biological target: human inducible NO-synthase (Homo sapiens, UniProt P35228); test: Measurement of inducible NO-synthase activity ([3H]arginine conversion); type: biochemical; settings: crude cytosolic fraction containing human inducible NO-synthase, arginine 0.1 μM, 45 to 60 min at 37° C.; for IC50: read-out: Inhibition of iNOS activity [measured as −logIC50 (mol/l)] (converted)
Procedure: Measurement of Inducible NO-Synthase Activity
The assay is performed in 96-well microtiter F-plates (Greiner, Frickenhausen, FRG) in a total volume of 100 μl in the presence of 100 nM calmodulin, 226 μM CaCl2, 477 μM MgCl2, 5 μM flavin-adenine-dinucleotide (FAD), 5 μM flavin mononucleotide (FMN), 0.1 mM NADPH, 7 mM glutathione, 10 μM BH4 and 100 mM HEPES pH 7.2. Arginine concentrations are 0.1 μM for enzyme inhibition experiments. 150000 dpm of [^3H]arginine are added to the assay mixture. Enzyme reaction is started by the addition of 4 μg of a crude cytosolic fraction containing human inducible NO-synthase and the reaction mixture is incubated for 45 to 60 min at 37° C. Enzyme reaction is stopped by adding 10 μl of 2M MES-buffer pH 5.0. 50 μl of the incubation mixture are transferred into a MADP N65 filtration microtiter plate (Millipore, Eschborn, FRG) containing already 50 μl of AG-50W-X8 cation exchange resin (Biorad, München, FRG). The resin in the Na loaded form is pre-equilibrated in water and 70 μl (corresponding to 50 μl dry beads) are pipetted under heavy stirring with a 8 channel pipette into the filtration plate. After pipetting 50 μl of the enzyme reaction mixture onto the filtration plates, the plates are placed on a filtration manifold (Porvair, Shepperton, UK) and the flow through is collected in Pico scintillation plates (Packard, Meriden, Conn.). […] The total flow through of 125 μl is mixed with 175 μl of Microscint-40 scintillation cocktail (Packard) and the scintillation plate is sealed with TopSeal P-foil (Packard). Scintillation plates are counted in a szintillation counter.
For the measurement of inducible NO-synthase-inhibiting potencies of compounds increasing concentrations of inhibitors were included into the incubation mixture. IC50-values were calculated from the percent inhibition at given concentrations by nonlinear least square fitting.

IC50 [1] [nM] | melting point [°C] | Compound | Inhibition of iNOS activity [measured as −logIC50 (mol/l)] [1]
44.7 | 206 to 208 | COc1ccnc(CCc2nc3cc(-c4ccc(O)cc4)cnc3[nH]2)c1 [compound 28, 2-[2-(4-Methoxypyridin-2-yl)ethyl]-6-(4-hydroxyphenyl)-3H-imidazo-[4,5-b]pyridine] | 
38.9 |  | COc1ccnc(CCc2nc3cc(-c4ccccc4)cnc3[nH]2)c1 [compound 10, 2-[2-(4-Methoxypyridin-2-yl)ethyl]-6-phenyl-3H-imidazo[4,5-b]pyridine] | 
67.6 | 220 to 221 | COc1ccnc(CCc2nc3cc(-c4ccc(NC(C)=O)cc4)cnc3[nH]2)c1 [compound 36, N-(4-{2-[2-(4-Methoxypyridin-2-yl)ethyl]-3H-imidazo[4,5-b]pyridin-6-yl}phenyl)-acetamide] | 
63.1 | 251 to 253 | COc1ccnc(CCc2nc3cc(-c4ccc(NS(=O)(=O)c5ccccc5)cc4)cnc3[nH]2)c1 [compound 37, N-(4-{2-[2-(4-Methoxypyridin-2-yl)ethyl]-3H-imidazo[4,5-b]pyridin-6-yl}phenyl)-benzenesulfonamide] | 
32.4 |  | COc1ccnc(CCc2nc3cc(I)cnc3[nH]2)c1 [compound 7, 2-[2-(4-Methoxypyridin-2-yl)ethyl]-6-iodo-3H-imidazo[4,5-b]pyridine] | 
89.1 |  | COc1ccnc(CCc2nc3cc(-c4cccnc4)cnc3[nH]2)c1 [compound 26, 2-[2-(4-Methoxypyridin-2-yl)ethyl]-6-(pyridin-3-yl)-3H-imidazo-[4,5-b]pyridine] | 

Further lines, the compound ahead of its results:

Compound | IC50 [1] [nM] | melting point [°C] | Inhibition of iNOS activity [measured as −logIC50 (mol/l)] [1]
COc1ccnc(CCc2nc3cc(-c4ccc(N(C)C)cc4)cnc3[nH]2)c1 [compound 29, 2-[2-(4-Methoxypyridin-2-yl)ethyl]-6-(4-N,N-dimethylaminophenyl)-3H-imidazo[4,5-b]pyridine] | 38 | 176 to 178 | 
COc1ccnc(CCc2nc3cc(-c4ccc(C(F)(F)F)cc4)cnc3[nH]2)c1 [compound 30, 2-[2-(4-Methoxypyridin-2-yl)ethyl]-6-(4-trifluormethylphenyl)-3H-imidazo[4,5-b]pyridine] |  |  | 7.55
COc1ccnc(CCc2nc3cc(-c4ccc(OCc5ccccc5)c(F)c4)cnc3[nH]2)c1 [compound 33, 2-[2-(4-Methoxypyridin-2-yl)ethyl]-(4-benzyloxy-3-fluorophenyl)-3H-imidazo[4,5-b]pyridine] |  |  | 7.29
COc1ccnc(CCc2nc3cc(-c4ccc(Cl)c(Cl)c4)cnc3[nH]2)c1 [compound 15, 2-[2-(4-Methoxypyridin-2-yl)ethyl]-6-(3,4-dichlorphenyl)-3H-imidazo[4,5-b]pyridine] |  |  | 7.33
COc1ccnc(CCc2nc3cc(-c4ccc(C#N)cc4)cnc3[nH]2)c1 [compound 34, 2-[2-(4-Methoxypyridin-2-yl)ethyl]-6-(4-cyanophenyl)-3H-imidazo[4,5-b]pyridine] | 33.9 | 241 to 242 | 
COc1ccnc(CCc2nc3cc(C)cnc3[nH]2)c1 [compound 11, 2-[2-(4-Methoxypyridin-2-yl)ethyl]-6-methyl-3H-imidazo[4,5-b]pyridine] | 69.2 |  | 
COc1ccnc(CCc2nc3cc(-c4ccc(OC)c(OC)c4)cnc3[nH]2)c1 [compound 31, 2-[2-(4-Methoxypyridin-2-yl)ethyl]-6-(3,4-dimethoxyphenyl)-3H-imidazo[4,5-b]pyridine] | 75.9 | 185 to 186 | 
COc1ccnc(CCc2nc3cc(C(F)(F)F)cnc3[nH]2)c1 [compound 9, 2-[2-(4-Methoxypyridin-2-yl)ethyl]-6-trifluoromethyl-3H-imidazo[4,5-b]pyridine] | 89.1 |  | 
COc1ccnc(CCc2nc3cc(-c4ccc(N)cc4)cnc3[nH]2)c1 [compound 27, 2-[2-(4-Methoxypyridin-2-yl)ethyl]-6-(4-aminophenyl)-3H-imidazo-[4,5-b]pyridine] | 61.7 | 117 to 119 | 
COc1ccnc(CCc2nc3cc(-c4ccc(Br)cc4)cnc3[nH]2)c1 [compound 16, 2-[2-(4-Methoxypyridin-2-yl)ethyl]-6-(4-bromphenyl)-3H-imidazo[4,5-b]pyridine] |  |  | 7.36
COc1ccnc(CCc2nc3cc(CCc4ccccc4)cnc3[nH]2)c1 [compound 14, 2-[2-(4-Methoxypyridin-2-yl)ethyl]-6-(2-phenylethyl)-3H-imidazo[4,5-b]pyridine] | 45.7 |  | 
COc1ccnc(CCc2nc3cc(-c4ccc(OCc5ccccc5)cc4)cnc3[nH]2)c1 [compound 32, 2-[2-(4-Methoxypyridin-2-yl)ethyl]-6-(4-benzyloxyphenyl)-3H-imidazo[4,5-b]pyridine] | 45.7 | 161 to 162 | 
COc1ccnc(CCc2nc3cc(-c4ccc(C)cc4)cnc3[nH]2)c1 [compound 25, 2-[2-(4-Methoxypyridin-2-yl)ethyl]-6-p-tolyl-3H-imidazo[4,5-b]pyridine] | 34.7 |  | 
